According to article PMC3119665, “A New Drug Design Targeting the Adenosinergic System for Huntington's Disease” (PLoS ONE, 2011):

Tests used:
A3 adenosine receptor = molecular target: T1, A3 adenosine receptor (Homo sapiens, UniProt P0DMS8); experiment: Radioligand binding assay
T1 construct: host or cells: CHO-K1
T1 sequence (P0DMS8 1-318): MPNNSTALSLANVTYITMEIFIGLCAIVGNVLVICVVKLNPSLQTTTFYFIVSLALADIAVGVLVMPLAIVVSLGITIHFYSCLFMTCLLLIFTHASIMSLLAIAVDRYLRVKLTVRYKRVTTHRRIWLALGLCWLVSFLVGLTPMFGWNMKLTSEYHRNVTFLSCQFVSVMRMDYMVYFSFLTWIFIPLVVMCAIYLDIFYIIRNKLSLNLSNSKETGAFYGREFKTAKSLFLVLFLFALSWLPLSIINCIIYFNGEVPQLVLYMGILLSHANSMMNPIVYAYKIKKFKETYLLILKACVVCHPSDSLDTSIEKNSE

Adrenomedullin AM1 = molecular target: T2, Adrenomedullin AM1 (Homo sapiens, UniProt O60895+Q16602); experiment: Radioligand binding panel (Table S1); conditions: 10 μM T1-11, n 2
T2 construct: purchased MDS Pharma Services Taiwan

Aldosterone = molecular target: T3, Aldosterone (Rattus norvegicus, UniProt P22199); experiment: Radioligand binding panel (Table S1); conditions: 10 μM T1-11, n 2
T3 construct: purchased MDS Pharma Services Taiwan
T3 sequence (P22199 whole entry): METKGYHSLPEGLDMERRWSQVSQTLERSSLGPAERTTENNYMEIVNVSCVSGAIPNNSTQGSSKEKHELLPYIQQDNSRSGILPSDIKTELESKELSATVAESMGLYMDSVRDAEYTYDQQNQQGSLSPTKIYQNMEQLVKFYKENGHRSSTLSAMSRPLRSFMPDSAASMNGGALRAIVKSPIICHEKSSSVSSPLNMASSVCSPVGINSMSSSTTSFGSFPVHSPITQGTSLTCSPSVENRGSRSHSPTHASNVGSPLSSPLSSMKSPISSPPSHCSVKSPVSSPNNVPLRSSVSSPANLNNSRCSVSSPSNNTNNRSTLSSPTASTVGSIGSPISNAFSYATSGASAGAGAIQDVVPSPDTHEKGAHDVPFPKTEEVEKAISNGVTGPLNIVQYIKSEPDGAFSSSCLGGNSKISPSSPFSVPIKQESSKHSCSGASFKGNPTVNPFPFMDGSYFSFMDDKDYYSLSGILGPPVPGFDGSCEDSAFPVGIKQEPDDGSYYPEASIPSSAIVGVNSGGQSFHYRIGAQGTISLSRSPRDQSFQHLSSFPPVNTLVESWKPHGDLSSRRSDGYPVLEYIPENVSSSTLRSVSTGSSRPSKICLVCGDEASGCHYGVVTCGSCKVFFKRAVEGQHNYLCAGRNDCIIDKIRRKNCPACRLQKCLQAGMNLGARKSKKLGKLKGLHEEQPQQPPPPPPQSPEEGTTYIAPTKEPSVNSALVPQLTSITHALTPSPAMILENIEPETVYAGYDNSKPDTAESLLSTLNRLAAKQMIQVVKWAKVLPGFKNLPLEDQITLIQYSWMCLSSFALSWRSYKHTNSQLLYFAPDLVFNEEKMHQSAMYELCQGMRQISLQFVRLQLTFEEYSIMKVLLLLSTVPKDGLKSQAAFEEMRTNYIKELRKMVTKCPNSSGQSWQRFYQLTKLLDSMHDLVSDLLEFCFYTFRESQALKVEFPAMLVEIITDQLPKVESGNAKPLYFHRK

[1] = molecular target: T4, Benzodiazepine, Peripheral (Rattus norvegicus, UniProt P16257); experiment: Radioligand binding panel (Table S1); conditions: 10 μM T1-11, n 2
T4 construct: purchased MDS Pharma Services Taiwan

Bombesin, Non-Selective = experiment: Radioligand binding panel (Table S1); set-up: species or system rat; conditions: 10 μM T1-11, n 2
Calcium Channel N-Type = molecular target: T5, Calcium Channel N-Type (Rattus norvegicus, UniProt Q02294); experiment: Radioligand binding panel (Table S1); conditions: 10 μM T1-11, n 2
T5 construct: purchased MDS Pharma Services Taiwan

Cannabinoid CB1 = molecular target: T6, Cannabinoid CB1 (Homo sapiens, UniProt P21554); experiment: Radioligand binding panel (Table S1); conditions: 10 μM T1-11, n 2
T6 construct: purchased MDS Pharma Services Taiwan

Chemokine CCR2B = molecular target: T7, Chemokine CCR2B (Homo sapiens, UniProt P41597); experiment: Radioligand binding panel (Table S1); conditions: 10 μM T1-11, n 2
T7 construct: purchased MDS Pharma Services Taiwan

Chemokine CCR5 = molecular target: T8, Chemokine CCR5 (Homo sapiens, UniProt P51681); experiment: Radioligand binding panel (Table S1); conditions: 10 μM T1-11, n 2
T8 construct: purchased MDS Pharma Services Taiwan
T8 sequence (P51681 whole entry): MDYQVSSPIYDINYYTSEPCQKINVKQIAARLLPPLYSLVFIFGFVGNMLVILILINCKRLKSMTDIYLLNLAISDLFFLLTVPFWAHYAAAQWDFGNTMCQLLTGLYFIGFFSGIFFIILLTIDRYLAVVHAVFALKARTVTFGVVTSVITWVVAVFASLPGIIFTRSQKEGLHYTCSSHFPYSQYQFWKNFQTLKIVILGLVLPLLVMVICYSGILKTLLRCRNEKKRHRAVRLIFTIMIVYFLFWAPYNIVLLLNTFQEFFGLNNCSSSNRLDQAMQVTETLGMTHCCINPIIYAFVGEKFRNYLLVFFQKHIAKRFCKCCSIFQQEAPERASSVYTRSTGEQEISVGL

Endothelin ETB = molecular target: T9, Endothelin ETB (Homo sapiens, UniProt P24530); experiment: Radioligand binding panel (Table S1); conditions: 10 μM T1-11, n 2
T9 construct: purchased MDS Pharma Services Taiwan

Erythropoietin EPOR = molecular target: T10, Erythropoietin EPOR (Homo sapiens, UniProt P19235); experiment: Radioligand binding panel (Table S1); conditions: 10 μM T1-11, n 2
T10 construct: purchased MDS Pharma Services Taiwan
T10 sequence (P19235 25-508): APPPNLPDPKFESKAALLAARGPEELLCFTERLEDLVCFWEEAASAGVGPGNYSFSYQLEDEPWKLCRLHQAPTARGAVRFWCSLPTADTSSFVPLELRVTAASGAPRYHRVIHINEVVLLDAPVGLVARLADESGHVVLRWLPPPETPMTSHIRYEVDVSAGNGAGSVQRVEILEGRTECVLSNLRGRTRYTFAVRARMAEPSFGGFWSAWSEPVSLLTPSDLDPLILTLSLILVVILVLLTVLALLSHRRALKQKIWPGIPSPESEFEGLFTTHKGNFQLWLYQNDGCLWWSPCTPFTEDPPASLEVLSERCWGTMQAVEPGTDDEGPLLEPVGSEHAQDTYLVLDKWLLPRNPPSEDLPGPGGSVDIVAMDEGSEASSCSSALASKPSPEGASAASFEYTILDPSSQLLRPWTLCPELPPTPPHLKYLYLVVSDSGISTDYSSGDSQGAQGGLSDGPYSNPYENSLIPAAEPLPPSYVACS

[2] = tested on: GABAA, Chloride Channel, TBOB; experiment: Radioligand binding panel (Table S1); set-up: species or system rat; conditions: 10 μM T1-11, n 2
Glucocorticoid = molecular target: T11, Glucocorticoid (Homo sapiens, UniProt P04150); experiment: Radioligand binding panel (Table S1); conditions: 10 μM T1-11, n 2
T11 construct: purchased MDS Pharma Services Taiwan

[3] = tested on: Glutamate, NMDA, Phencyclidine; experiment: Radioligand binding panel (Table S1); set-up: species or system rat; conditions: 10 μM T1-11, n 2
Insulin = experiment: Radioligand binding panel (Table S1); set-up: species or system rat; conditions: 10 μM T1-11, n 2
Melanocortin MC3 = molecular target: T12, Melanocortin MC3 (Homo sapiens, UniProt P41968); experiment: Radioligand binding panel (Table S1); conditions: 10 μM T1-11, n 2
T12 construct: purchased MDS Pharma Services Taiwan
T12 sequence (P41968 whole entry): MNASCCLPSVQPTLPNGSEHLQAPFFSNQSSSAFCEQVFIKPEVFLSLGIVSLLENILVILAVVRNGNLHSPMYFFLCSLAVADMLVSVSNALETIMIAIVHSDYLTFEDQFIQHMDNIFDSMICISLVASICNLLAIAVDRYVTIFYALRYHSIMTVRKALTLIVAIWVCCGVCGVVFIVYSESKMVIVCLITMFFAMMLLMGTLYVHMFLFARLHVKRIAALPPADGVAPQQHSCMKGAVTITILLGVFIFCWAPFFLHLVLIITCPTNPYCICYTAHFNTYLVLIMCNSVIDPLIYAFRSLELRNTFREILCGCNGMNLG

Melanocortin MC4 = molecular target: T13, Melanocortin MC4 (Homo sapiens, UniProt P32245); experiment: Radioligand binding panel (Table S1); conditions: 10 μM T1-11, n 2
T13 construct: purchased MDS Pharma Services Taiwan

Muscarinic M5 = molecular target: T14, Muscarinic M5 (Homo sapiens, UniProt P08912); experiment: Radioligand binding panel (Table S1); conditions: 10 μM T1-11, n 2
T14 construct: purchased MDS Pharma Services Taiwan

Neuromedin U NMU1 = molecular target: T15, Neuromedin U NMU1 (Homo sapiens, UniProt Q9HB89); experiment: Radioligand binding panel (Table S1); conditions: 10 μM T1-11, n 2
T15 construct: purchased MDS Pharma Services Taiwan
T15 sequence (Q9HB89 whole entry): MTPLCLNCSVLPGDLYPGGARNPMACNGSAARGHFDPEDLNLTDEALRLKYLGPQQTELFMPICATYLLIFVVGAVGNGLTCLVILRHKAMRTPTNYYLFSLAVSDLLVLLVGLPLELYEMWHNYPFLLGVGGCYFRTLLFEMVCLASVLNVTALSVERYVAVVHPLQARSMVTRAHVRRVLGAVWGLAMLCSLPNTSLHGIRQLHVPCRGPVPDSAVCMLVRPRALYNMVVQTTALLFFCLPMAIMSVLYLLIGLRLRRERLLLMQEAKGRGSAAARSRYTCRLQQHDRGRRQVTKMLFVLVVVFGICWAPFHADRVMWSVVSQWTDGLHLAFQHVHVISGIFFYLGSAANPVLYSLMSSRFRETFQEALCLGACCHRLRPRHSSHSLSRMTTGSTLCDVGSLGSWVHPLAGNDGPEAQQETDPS

Opiate δ (OP1, DOP) = molecular target: T16, Opiate δ (OP1, DOP) (Homo sapiens, UniProt P41143); experiment: Radioligand binding panel (Table S1); conditions: 10 μM T1-11, n 2
T16 construct: purchased MDS Pharma Services Taiwan
T16 sequence (P41143 whole entry): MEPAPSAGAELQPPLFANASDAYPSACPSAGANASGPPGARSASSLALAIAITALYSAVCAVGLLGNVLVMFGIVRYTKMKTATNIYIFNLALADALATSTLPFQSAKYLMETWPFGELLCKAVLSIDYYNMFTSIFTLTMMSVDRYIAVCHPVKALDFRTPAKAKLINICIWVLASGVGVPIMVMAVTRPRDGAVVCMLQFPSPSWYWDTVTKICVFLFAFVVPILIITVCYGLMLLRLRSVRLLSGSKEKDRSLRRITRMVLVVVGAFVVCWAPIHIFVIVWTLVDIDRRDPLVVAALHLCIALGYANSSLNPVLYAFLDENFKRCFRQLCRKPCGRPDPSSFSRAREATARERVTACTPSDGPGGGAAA

Opiate, Non-Selective = experiment: Radioligand binding panel (Table S1); set-up: species or system rat; conditions: 10 μM T1-11, n 2
Orexin OX 2 = molecular target: T17, Orexin OX 2 (Homo sapiens, UniProt O43614); experiment: Radioligand binding panel (Table S1); conditions: 10 μM T1-11, n 2
T17 construct: purchased MDS Pharma Services Taiwan
T17 sequence (O43614 whole entry): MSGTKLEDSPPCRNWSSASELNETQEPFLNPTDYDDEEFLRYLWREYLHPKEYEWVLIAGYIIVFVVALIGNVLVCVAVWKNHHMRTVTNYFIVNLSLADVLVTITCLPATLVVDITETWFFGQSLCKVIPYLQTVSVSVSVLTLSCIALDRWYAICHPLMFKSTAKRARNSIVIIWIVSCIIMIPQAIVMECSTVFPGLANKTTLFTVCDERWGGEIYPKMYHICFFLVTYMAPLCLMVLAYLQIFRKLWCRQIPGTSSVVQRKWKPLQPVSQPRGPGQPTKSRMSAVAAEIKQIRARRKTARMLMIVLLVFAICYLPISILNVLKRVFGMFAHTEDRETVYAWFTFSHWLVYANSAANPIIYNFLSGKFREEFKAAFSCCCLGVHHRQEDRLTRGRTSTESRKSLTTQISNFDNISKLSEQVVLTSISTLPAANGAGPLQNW

Phorbol Ester = experiment: Radioligand binding panel (Table S1); set-up: species or system mouse; conditions: 10 μM T1-11, n 2
Progesterone = experiment: Radioligand binding panel (Table S1); set-up: species or system bovine; conditions: 10 μM T1-11, n 2
Prostanoid DP = molecular target: T18, Prostanoid DP (Homo sapiens, UniProt Q13258); experiment: Radioligand binding panel (Table S1); conditions: 10 μM T1-11, n 2
T18 construct: purchased MDS Pharma Services Taiwan

[4] = molecular target: T19, Serotonin (5-Hydroxytryptamine) 5-HT2C (Homo sapiens, UniProt P28335); experiment: Radioligand binding panel (Table S1); conditions: 10 μM T1-11, n 2
T19 construct: purchased MDS Pharma Services Taiwan
T19 sequence (P28335 33-458): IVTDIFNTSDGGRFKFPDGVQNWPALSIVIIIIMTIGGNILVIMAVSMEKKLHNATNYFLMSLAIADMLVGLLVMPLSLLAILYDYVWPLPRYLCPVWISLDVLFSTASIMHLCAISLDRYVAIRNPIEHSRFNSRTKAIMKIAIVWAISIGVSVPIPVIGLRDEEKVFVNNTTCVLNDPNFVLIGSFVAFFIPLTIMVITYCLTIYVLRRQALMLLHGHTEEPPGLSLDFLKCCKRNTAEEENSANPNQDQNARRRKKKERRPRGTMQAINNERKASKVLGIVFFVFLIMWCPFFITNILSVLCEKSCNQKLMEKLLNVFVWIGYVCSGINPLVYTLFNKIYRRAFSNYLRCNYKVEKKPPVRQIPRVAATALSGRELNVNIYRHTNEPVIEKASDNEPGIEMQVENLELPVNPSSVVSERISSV

[5] = molecular target: T20, Serotonin (5-Hydroxytryptamine) 5-HT4 (Cavia porcellus, UniProt O70528); experiment: Radioligand binding panel (Table S1); set-up: species or system guinea pig; conditions: 10 μM T1-11, n 2
T20 construct: purchased MDS Pharma Services Taiwan
T20 sequence (O70528 whole entry): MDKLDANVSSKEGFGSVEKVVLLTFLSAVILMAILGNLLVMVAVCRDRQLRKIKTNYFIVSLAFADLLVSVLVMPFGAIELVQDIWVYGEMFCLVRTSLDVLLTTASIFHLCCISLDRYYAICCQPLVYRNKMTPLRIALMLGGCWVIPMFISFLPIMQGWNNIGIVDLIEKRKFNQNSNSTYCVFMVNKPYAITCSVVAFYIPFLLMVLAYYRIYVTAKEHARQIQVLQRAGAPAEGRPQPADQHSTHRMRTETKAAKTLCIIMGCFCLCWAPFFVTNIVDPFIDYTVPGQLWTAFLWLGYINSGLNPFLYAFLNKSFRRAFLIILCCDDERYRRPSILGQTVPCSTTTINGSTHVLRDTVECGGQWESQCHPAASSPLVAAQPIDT

[6] = molecular target: T21, Serotonin (5-Hydroxytryptamine) 5-HT5A (Homo sapiens, UniProt P47898); experiment: Radioligand binding panel (Table S1); conditions: 10 μM T1-11, n 2
T21 construct: purchased MDS Pharma Services Taiwan

[7] = molecular target: T22, Serotonin (5-Hydroxytryptamine) 5-HT7 (Homo sapiens, UniProt P34969); experiment: Radioligand binding panel (Table S1); conditions: 10 μM T1-11, n 2
T22 construct: purchased MDS Pharma Services Taiwan
T22 sequence (P34969 whole entry): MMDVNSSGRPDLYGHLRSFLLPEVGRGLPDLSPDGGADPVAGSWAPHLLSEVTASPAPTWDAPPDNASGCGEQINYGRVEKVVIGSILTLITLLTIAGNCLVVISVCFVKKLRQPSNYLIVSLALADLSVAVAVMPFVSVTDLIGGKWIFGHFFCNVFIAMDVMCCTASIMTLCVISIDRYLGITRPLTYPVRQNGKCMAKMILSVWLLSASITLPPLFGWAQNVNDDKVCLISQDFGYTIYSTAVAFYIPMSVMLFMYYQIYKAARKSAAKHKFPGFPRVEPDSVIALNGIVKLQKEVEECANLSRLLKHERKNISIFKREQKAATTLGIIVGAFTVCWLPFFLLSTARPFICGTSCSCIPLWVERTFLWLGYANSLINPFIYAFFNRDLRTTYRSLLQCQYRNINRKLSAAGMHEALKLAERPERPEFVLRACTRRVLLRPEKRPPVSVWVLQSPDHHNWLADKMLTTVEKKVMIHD

Tachykinin NK3 = molecular target: T23, Tachykinin NK3 (Homo sapiens, UniProt P29371); experiment: Radioligand binding panel (Table S1); conditions: 10 μM T1-11, n 2
T23 construct: purchased MDS Pharma Services Taiwan

Thyroid Hormone = experiment: Radioligand binding panel (Table S1); set-up: species or system rat; conditions: 10 μM T1-11, n 2
R6/2 mice = experiment: Survival of R6/2 mice; assay type: in vivo; conditions: 0.05 mg/ml in drinking water, n = 11
From the text: Male R6/2 mice and littermate controls were originally obtained from Jackson Laboratories (Bar Harbor, ME, USA), and mated to female control mice (B6CBAFI/J). Offspring were identified by a polymerase chain reaction (PCR) genotyping technique of genomic DNA extracted from tail tissues using primers located in the transgene (5′-[…]-3′ and 5′-[…]- AGGAG-3′) to ensure that the number of CAG repeats remained approximately 150. In total, 211 R6/2 transgenic mice were used in this study. Animals were housed at the Institute of Biomedical Sciences Animal Care Facility under a 12-h light/dark cycle. Body weights of mice were recorded once daily. Animal experiments were performed under protocols approved by the Academia Sinica Institutional Animal Care and Utilization Committee, Taipei, Taiwan.
Supplementary file pone.0020934.s005.tif: Figure S5 Effect of T1-11 on the shorten lifespan and enlarged ventricle of R6/2 mice. Animals were given the vehicle (1% DMSO; CON) or T1-11 (0.05 mg/ml)-containing drinking water from the age of 7 weeks. (A) Survival was assessed. Specific comparison to R6/2 mice treated with the vehicle (p = 0.306; Mantel-Cox test). (B) Five weeks after T1-11 treatment, 3D-lMRI was performed to determine the ventricle-to-brain ratio of the indicated animals as described. * p<0.05. (TIF) Click here for additional data file.

[8] = CHO-K1 membranes, 3H-AB-MECA 0.5 nM

Compound: OC[C@H]1O[C@@H](n2cnc3c(NCc4ccc(O)cc4)ncnc32)[C@H](O)[C@@H]1O [T1-11, N ^6-(4-hydroxybenzyl)adenine riboside]
- inhibition at 10 µM (A3 adenosine receptor; 10 μM T1-11, n 2): 103%
- IC50 (A3 adenosine receptor; [8]): 110 nM
- Ki (A3 adenosine receptor; [8]): 100 nM
- inhibition at 10 µM (Adrenomedullin AM1): 11%
- inhibition at 10 µM (Aldosterone): 2%
- inhibition at 10 µM [1]: 3%
- % Inhibition (Bombesin, Non-Selective): 6%
- inhibition at 10 µM (Calcium Channel N-Type): 1%
- inhibition at 10 µM (Cannabinoid CB1): -7%
- inhibition at 10 µM (Chemokine CCR2B): 0%
- inhibition at 10 µM (Chemokine CCR5): -8%
- inhibition at 10 µM (Endothelin ETB): 2%
- inhibition at 10 µM (Erythropoietin EPOR): 3%
- % Inhibition [2]: -3%
- inhibition at 10 µM (Glucocorticoid): -10%
- % Inhibition [3]: -2%
- % Inhibition (Insulin): 4%
- inhibition at 10 µM (Melanocortin MC3): 3%
- inhibition at 10 µM (Melanocortin MC4): 5%
- inhibition at 10 µM (Muscarinic M5): 0%
- inhibition at 10 µM (Neuromedin U NMU1): -1%
- inhibition at 10 µM (Opiate δ (OP1, DOP)): 19%
- % Inhibition (Opiate, Non-Selective): -13%
- inhibition at 10 µM (Orexin OX 2): -7%
- % Inhibition (Phorbol Ester): 9%
- % Inhibition (Progesterone): 9%
- inhibition at 10 µM (Prostanoid DP): 17%
- inhibition at 10 µM [4]: 27%
- inhibition at 10 µM [5]: 1%
- inhibition at 10 µM [6]: -7%
- inhibition at 10 µM [7]: 2%
- inhibition at 10 µM (Tachykinin NK3): -3%
- % Inhibition (Thyroid Hormone): -9%
- Mean survival time (R6/2 mice): 103.3 ± 3.9 days
